Reference: US20240116850A1, “COMPOSITIONS AND METHODS RELATED TO BICYCLO[2.2.1] HEPTANAMINE-CONTAINING COMPOUNDS” (The Broad Institute, Inc., priority 2020, published 2024)
pEC50: −log10 of the molar value.

How the values were obtained:
MUC1-fs = assay: High-content imaging assay of MUC1-fs total cytoplasm intensity in P cells; assay type: cell-based; details: for pEC50: MUC1-fs total cytoplasm intensity, P cells, 48 hr incubation; for ECMax: MUC1-fs, DMSO = 0, JQ1 (250 nM) = −100% activity
Experimental: (§1) P cells were seeded 24 hr prior to compound treatment at a density of 12,000 cells/well in 384 well Cell Carrier Ultra plates (6057308, Perkin Elmer), pre-coated with 0.25 mg/mL Synthemax 11 SC Substrate (3535, Corning). Compounds were used at 5 doses (35, 3.5, 0.35, 0.035 and 0.0035 μM) for the primary screen and 10 doses (16, 5.6, 1.8, 0.6, 0.21, 0.07, 0.02, 0.008, 0.002 and 0.0008 μM) for the following screens. The compounds, in two replicates, were transferred from compound source plates to the cell plates using the HighRes Pin Tool. DMSO was used as a negative control and JQ1 (250 nM) (a bromodomain inhibitor) was chosen as a positive control, based on earlier studies showing its potent effect on reducing total MUC1 mRNA levels (data not shown). After 48 hr incubation, cells were fixed for 20 min in 4% PFA (Electron Microscopy Sciences) in PBS, washed twice, then permeabilized (10 min) with 0.5% Triton-X100 (X100-100MVL, Sigma-Aldrich) in PBS and washed once more. Cells were blocked for 10 min at RT with Blocking solution (100 mM Tris HCL pH8; l150 mM NaCL; 5 g/L Blocking Reagent [11096176001, Roche]), then incubated 90 min at RT with one of the following primary antibodies in Roche Blocking solution: 1:500, monoclonal Fab-A-V5H anti-MUC1-fs, AbD22655.2, Bio-Rad; 1:2000, monoclonal mouse anti-MUC1 (214D4), 05-652-KC, Millipore; 1:1000, monoclonal, Rabbit anti-GM130 (D6B1) XP, 12480, Cell signaling technology. The primary antibody cocktail was incubated at RT for 1.5 hr, followed by four PBS wash cycles. The secondary antibody cocktail contained four components that were all prepared at a 1:1000 dilution in the Roche blocking solution and consisted of Alexa Fluor® 488-conjugated AffiniPure F(ab′)2 Fragment Goat anti-Human IgG, 109-546-097, Jackson Immunoresearch; Alexa Fluor® 647-conjugated Goat anti-Rabbit IgG, A-21246, Thermo Fisher Scientific®; Alexa Fluor® 546 Goat anti-mouse IgG, A-21123, Thermo Fisher Scientific® and Hoechst 33342 stain (62249, Thermo Fisher Scientific®). The secondary antibody cocktail was incubated at RT for 45 min, followed by four PBS wash cycles. Finally, plates were sealed with a Plate Loc plate and stored in Liconic incubator at 10° C. until imaging. Following image analysis, three parameters were selected, i) MUC1-fs and ii) MUC1-wt total cytoplasm intensity (averaged per cell) and iii) cell number as was detected by Hoechst 33342 stained nuclei. The levels of MUC1-fs and MUC1-wt found following DMSO and JQ1 were defined as 0 and −100% activity, respectively. The values obtained for all compounds were normalized accordingly. Cell number was normalized to DMSO control.
(§2) The pure enantiomers were profiled in the high-content imaging assay for the ability to reduce the amount of FS MUC1 protein in the cytoplasm (Table 48) following the procedure of Example 4.

MUC1-wt = assay: High-content imaging assay of MUC1-wt total cytoplasm intensity in P cells; assay type: cell-based; details: for EC50: MUC1-wt total cytoplasm intensity, P cells, 48 hr incubation; for WT ECMax: MUC1-wt, DMSO = 0, JQ1 (250 nM) = −100% activity
Experimental: as §1, §2

| pEC50 (MUC1-fs) | EC50 (MUC1-wt) [µM] | Compound | ECMax (MUC1-fs) [%] | WT ECMax (MUC1-wt) [%] |
| --- | --- | --- | --- | --- |
| < 4.49 | > 32 | CC(C)C[C@H]1[C@@H]2CC[C@@H](C2)[C@@H]1N.Cl (single isomer, unassigned) [Compound 111-P2] | −11.51 | −9.06 |
| 6.32 | > 32 | Cl.N[C@@H]1[C@@H]2CC[C@@H](C2)[C@H]1C1CCC1 (racemic) [Compound 113] | −46.53 | 13.12 |
| < 4.49 | > 32 | CC(C)C[C@@H]1[C@@H]2CC[C@@H](C2)[C@H]1N.Cl (single isomer, unassigned) [Compound 112-P2] | 13.14 | 7.52 |
| 4.52 | > 32 | Cl.N[C@H]1[C@@H]2CC[C@@H](C2)[C@@H]1C1CCC1 (single isomer, unassigned) [Compound 114-P1] | −28.1 | 5.99 |

The remaining lines, values behind:

| Compound | pEC50 (MUC1-fs) | EC50 (MUC1-wt) [µM] | ECMax (MUC1-fs) [%] | WT ECMax (MUC1-wt) [%] |
| --- | --- | --- | --- | --- |
| Cl.N[C@@H]1[C@H]2CC[C@H](C2)[C@H]1C1CC1 (single isomer, unassigned) [Compound 110-P2] | – | – | −47.09 | −12.31 |
| Cl.N[C@@H]1[C@@H]2CC[C@@H](C2)[C@H]1C1CC1 (single isomer, unassigned) [Compound 109-P1] | < 4.49 | > 32 | −32.29 | 9.06 |
| Cl.N[C@@H]1[C@H]2CC[C@H](C2)[C@H]1c1ccccc1 (single isomer, unassigned) [Compound 121-P2] | < 4.49 | > 32 | −9.03 | 7.35 |
| Cl.N[C@H]1[C@H]2CC[C@H](C2)[C@@H]1C1CC1 (single isomer, unassigned) [Compound 109-P2] | 6.28 | > 32 | −74.31 | −14.32 |
| Cl.N[C@@H]1[C@@H]2CC[C@@H](C2)[C@H]1c1ccccc1 (racemic) [Compound 120] | < 4.49 | > 32 | −27.71 | 15.88 |
| C[C@@H]1[C@H]2CC[C@H](C2)[C@H]1N.Cl (single isomer, unassigned) [Compound 104-P2, hydrochloride] | 5.35 | > 32 | – | – |
| CC(C)C[C@@H]1[C@H]2CC[C@H](C2)[C@H]1N.Cl (single isomer, unassigned) [Compound 111-P1] | < 4.49 | > 32 | −12.73 | −10.33 |
